Tests used:
morphine dependent rats = test: Naloxone-precipitated withdrawal responses in morphine dependent rats; assay type: in vivo, rat
Description: Rats received a depot subcutaneous injection of morphine (150 mg/kg) with or without continuous infusion of D-CYSee (20 μmol/kg/hour, IV) and one day later the rats received an intraperitoneal injection of naloxone HCl (1.5 mg/kg) to elicit withdrawal responses.

[1] = system: morphine-exposed mouse pups; test: Neonatal opioid withdrawal syndrome (NOWS): naloxone-precipitated somatic signs in morphine-exposed mouse pups; assay type: in vivo; settings: D-CYSee 30 mg/kg s.c. given prior to naloxone 1.0 mg/kg
Description: FIG. 2 illustrates a schematic timeline of an assay of neonatal morphine exposure of female mice for determining neonatal opioid withdrawal syndrome (NOWS). Female mice are implanted with osmotic mini-pumps containing 20 mg/kg/day morphine sulfate and mated. Offspring are injected twice daily with 10 mg/kg morphine for 14 days.
FIG. 4 illustrates a graph showing D-CYSee modulates NOWS. […] D-CYSee (30 mg/kg s.c.) given prior to naloxone (1.0 mg/kg) reduces all somatic signs of withdrawal except for jumping behavior, which is enhanced.

[2] = rats, D-CYSee 20 μmol/kg/hour IV, naloxone HCl 1.5 mg/kg i.p.

CCOC(=O)[C@H](N)CS [D-CYSee, D-cysteine ethyl ester]
withdrawal responses (morphine dependent rats; morphine 150 mg/kg depot s.c., D-CYSee 20 μmol/kg/hour IV continuous infusion, naloxone HCl 1.5 mg/kg i.p. one day later): markedly diminishes | change in mean arterial blood pressure (morphine dependent rats; [2]): attenuated | circling behavior (morphine dependent rats; [2]): attenuated | episodes of apneas (morphine dependent rats; [2]): attenuated | episodes of fore-paw licking (morphine dependent rats; [2]): attenuated | episodes of sneezing (morphine dependent rats; [2]): attenuated | jumping behavior (morphine dependent rats; [2]): attenuated | rearing behavior (morphine dependent rats; [2]): attenuated | body tremors [1]: reduces | jumps (jumping behavior) [1]: enhanced | paw tremors [1]: reduces | wall climbs [1]: reduces
